Assay results taken from ChEMBL document CHEMBL3885881, “DrugMatrix”.

Organism: Rattus norvegicus
Format: toxicity, organism-based, Sprague-Dawley
Conditions: in vivo, po, route oral GAVAGE, […]; for ABSOLUTE EOSINOPHIL / ABSOLUTE LYMPHOCYTE / ABSOLUTE MONOCYTE / ABSOLUTE SEGMENTED NEUTROPHIL / BASOPHIL / EOSINOPHIL / ERYTHROCYTE COUNT / HEMATOCRIT / HEMOGLOBIN / LEUKOCYTE COUNT / LYMPHOCYTE / MEAN CORPUSCULAR HEMOGLOBIN / MEAN CORPUSCULAR HEMOGLOBIN CONCENTRATION / MEAN CORPUSCULAR VOLUME / MONOCYTE / NEUTROPHIL / NUCLEATED RED BLOOD CELLS / PLATELET COUNT: tissue Blood; for ALANINE AMINOTRANSFERASE / ALBUMIN / ALKALINE PHOSPHATASE / ASPARTATE AMINOTRANSFERASE / BLOOD UREA NITROGEN / CARBON DIOXIDE / CHLORIDE / CHOLESTEROL / CREATINE PHOSPHOKINASE / CREATININE / GLUCOSE / LACTATE DEHYDROGENASE / LIPASE / PHOSPHORUS / POTASSIUM / SODIUM / TOTAL BILIRUBIN / TOTAL PROTEIN / URIC ACID: tissue Plasma
[1] = 30 mg/kg, 24 h, dose level Low, time 1 day
[2] = 60 mg/kg, 6 h, dose level High, time 0.25 day
[3] = 60 mg/kg, 24 h, dose level High, time 1 day

Description: DrugMatrix - Regimen: Single

## S=C=Nc1cccc2ccccc12 [1-NAPHTHYLISOTHIOCYANATE]
[1]
  ABSOLUTE EOSINOPHIL: 0 CELLS/uL
  ABSOLUTE LYMPHOCYTE: 8784 CELLS/uL
  ABSOLUTE MONOCYTE: 359.5 CELLS/uL
  ABSOLUTE SEGMENTED NEUTROPHIL: 2189.83 CELLS/uL
  BASOPHIL: 0%
  EOSINOPHIL: 0%
  ERYTHROCYTE COUNT: 5.45 x10E6/uL
  HEMATOCRIT: 34.5%
  HEMOGLOBIN: 13.67 G/DL
  LEUKOCYTE COUNT: 11.33 x10E3/uL
  LYMPHOCYTE: 78.33%
  MEAN CORPUSCULAR HEMOGLOBIN: 25.1 pg
  MEAN CORPUSCULAR HEMOGLOBIN CONCENTRATION: 39.62 G/DL
  MEAN CORPUSCULAR VOLUME: 63.35 fL
  MONOCYTE: 2.83%
  NEUTROPHIL: 18.83%
  NUCLEATED RED BLOOD CELLS: 0 /100WBC
  PLATELET COUNT: 1092.83 x10E3/uL
  ALANINE AMINOTRANSFERASE: 122 u/L
  ALBUMIN: 3.92 G/DL
  ALKALINE PHOSPHATASE: 386.33 u/L
  ASPARTATE AMINOTRANSFERASE: 211 u/L
  BLOOD UREA NITROGEN: 11.67 mg/dL
  CARBON DIOXIDE: 35.83 mmol/L
  CHLORIDE: 97.33 MEQ/L
  CHOLESTEROL: 83.5 mg/dL
  CREATINE PHOSPHOKINASE: 327.33 u/L
  CREATININE: 0.3 mg/dL
  GLUCOSE: 139.33 mg/dL
  LACTATE DEHYDROGENASE: 171 u/L
  LIPASE: 9.33 u/L
  PHOSPHORUS: 9.87 mg/dL
  POTASSIUM: 4.44 MEQ/L
  SODIUM: 145.25 MEQ/L
  TOTAL BILIRUBIN: 1.02 mg/dL
  TOTAL PROTEIN: 6.05 G/DL
  URIC ACID: 0.5 mg/dL
[2]
  ABSOLUTE EOSINOPHIL: 98.5 CELLS/uL
  ABSOLUTE LYMPHOCYTE: 11852.33 CELLS/uL
  ABSOLUTE MONOCYTE: 375.83 CELLS/uL
  ABSOLUTE SEGMENTED NEUTROPHIL: 1556.67 CELLS/uL
  BASOPHIL: 0%
  EOSINOPHIL: 0.67%
  ERYTHROCYTE COUNT: 5.41 x10E6/uL
  HEMATOCRIT: 36.93%
  HEMOGLOBIN: 13.93 G/DL
  LEUKOCYTE COUNT: 13.88 x10E3/uL
  LYMPHOCYTE: 84.83%
  MEAN CORPUSCULAR HEMOGLOBIN: 25.75 pg
  MEAN CORPUSCULAR HEMOGLOBIN CONCENTRATION: 37.73 G/DL
  MEAN CORPUSCULAR VOLUME: 68.25 fL
  MONOCYTE: 2.67%
  NEUTROPHIL: 11.83%
  NUCLEATED RED BLOOD CELLS: 0 /100WBC
  PLATELET COUNT: 1029 x10E3/uL
  ALANINE AMINOTRANSFERASE: 53.6 u/L
  ALBUMIN: 4.36 G/DL
  ALKALINE PHOSPHATASE: 315.4 u/L
  ASPARTATE AMINOTRANSFERASE: 106 u/L
  BLOOD UREA NITROGEN: 9.8 mg/dL
  CARBON DIOXIDE: 17.2 mmol/L
  CHLORIDE: 104.6 MEQ/L
  CHOLESTEROL: 74.6 mg/dL
  CREATINE PHOSPHOKINASE: 475 u/L
  CREATININE: 0.21 mg/dL
  GLUCOSE: 258.8 mg/dL
  LACTATE DEHYDROGENASE: 229.4 u/L
  LIPASE: 11 u/L
  PHOSPHORUS: 16.5 mg/dL
  POTASSIUM: 5.82 MEQ/L
  SODIUM: 145.04 MEQ/L
  TOTAL BILIRUBIN: 0.22 mg/dL
  TOTAL PROTEIN: 5.82 G/DL
  URIC ACID: 2.54 mg/dL
[3]
  ABSOLUTE EOSINOPHIL: 30 CELLS/uL
  ABSOLUTE LYMPHOCYTE: 8567.5 CELLS/uL
  ABSOLUTE MONOCYTE: 316 CELLS/uL
  ABSOLUTE SEGMENTED NEUTROPHIL: 2953.17 CELLS/uL
  BASOPHIL: 0%
  EOSINOPHIL: 0.33%
  ERYTHROCYTE COUNT: 5.57 x10E6/uL
  HEMATOCRIT: 34.8%
  HEMOGLOBIN: 13.72 G/DL
  LEUKOCYTE COUNT: 11.87 x10E3/uL
  LYMPHOCYTE: 71.17%
  MEAN CORPUSCULAR HEMOGLOBIN: 24.67 pg
  MEAN CORPUSCULAR HEMOGLOBIN CONCENTRATION: 39.42 G/DL
  MEAN CORPUSCULAR VOLUME: 62.55 fL
  MONOCYTE: 2.67%
  NEUTROPHIL: 25.83%
  NUCLEATED RED BLOOD CELLS: 0 /100WBC
  PLATELET COUNT: 1101.5 x10E3/uL
  ALANINE AMINOTRANSFERASE: 142.33 u/L
  ALBUMIN: 3.88 G/DL
  ALKALINE PHOSPHATASE: 513.83 u/L
  ASPARTATE AMINOTRANSFERASE: 288 u/L
  BLOOD UREA NITROGEN: 11.17 mg/dL
  CARBON DIOXIDE: 34.17 mmol/L
  CHLORIDE: 95.83 MEQ/L
  CHOLESTEROL: 118 mg/dL
  CREATINE PHOSPHOKINASE: 254.17 u/L
  CREATININE: 0.34 mg/dL
  GLUCOSE: 133.33 mg/dL
  LACTATE DEHYDROGENASE: 241.83 u/L
  LIPASE: 80.33 u/L
  PHOSPHORUS: 10.95 mg/dL
  POTASSIUM: 3.66 MEQ/L
  SODIUM: 144.63 MEQ/L
  TOTAL BILIRUBIN: 2.2 mg/dL
  TOTAL PROTEIN: 6.13 G/DL
  URIC ACID: 0.45 mg/dL
